Tests used:
MET = MET biochemical kinase assay; set-up: species or system human; concentration or dose not given beside the values
In short: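 Immunocaptured MET autophosphorylation, read colorimetrically (TMB) via HRP anti-phosphotyrosine antibody. Kinase reaction initiated with buffer containing ATP and divalent metals after compound addition to plate-bound receptor from lysates.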

EGFR = target: T1, EGFR (Homo sapiens, UniProt P00533); test: EGFR ELISA assay (in vitro kinase activity, EGFR captured from A431 cell lysate); type: biochemical; set-up: concentration or dose not given beside the values
T1 construct: Add 7 ug A431 cell lysate per well (EGFR source); endogenous in cells; host or cells: A431
T1 sequence (P00533 25-1210): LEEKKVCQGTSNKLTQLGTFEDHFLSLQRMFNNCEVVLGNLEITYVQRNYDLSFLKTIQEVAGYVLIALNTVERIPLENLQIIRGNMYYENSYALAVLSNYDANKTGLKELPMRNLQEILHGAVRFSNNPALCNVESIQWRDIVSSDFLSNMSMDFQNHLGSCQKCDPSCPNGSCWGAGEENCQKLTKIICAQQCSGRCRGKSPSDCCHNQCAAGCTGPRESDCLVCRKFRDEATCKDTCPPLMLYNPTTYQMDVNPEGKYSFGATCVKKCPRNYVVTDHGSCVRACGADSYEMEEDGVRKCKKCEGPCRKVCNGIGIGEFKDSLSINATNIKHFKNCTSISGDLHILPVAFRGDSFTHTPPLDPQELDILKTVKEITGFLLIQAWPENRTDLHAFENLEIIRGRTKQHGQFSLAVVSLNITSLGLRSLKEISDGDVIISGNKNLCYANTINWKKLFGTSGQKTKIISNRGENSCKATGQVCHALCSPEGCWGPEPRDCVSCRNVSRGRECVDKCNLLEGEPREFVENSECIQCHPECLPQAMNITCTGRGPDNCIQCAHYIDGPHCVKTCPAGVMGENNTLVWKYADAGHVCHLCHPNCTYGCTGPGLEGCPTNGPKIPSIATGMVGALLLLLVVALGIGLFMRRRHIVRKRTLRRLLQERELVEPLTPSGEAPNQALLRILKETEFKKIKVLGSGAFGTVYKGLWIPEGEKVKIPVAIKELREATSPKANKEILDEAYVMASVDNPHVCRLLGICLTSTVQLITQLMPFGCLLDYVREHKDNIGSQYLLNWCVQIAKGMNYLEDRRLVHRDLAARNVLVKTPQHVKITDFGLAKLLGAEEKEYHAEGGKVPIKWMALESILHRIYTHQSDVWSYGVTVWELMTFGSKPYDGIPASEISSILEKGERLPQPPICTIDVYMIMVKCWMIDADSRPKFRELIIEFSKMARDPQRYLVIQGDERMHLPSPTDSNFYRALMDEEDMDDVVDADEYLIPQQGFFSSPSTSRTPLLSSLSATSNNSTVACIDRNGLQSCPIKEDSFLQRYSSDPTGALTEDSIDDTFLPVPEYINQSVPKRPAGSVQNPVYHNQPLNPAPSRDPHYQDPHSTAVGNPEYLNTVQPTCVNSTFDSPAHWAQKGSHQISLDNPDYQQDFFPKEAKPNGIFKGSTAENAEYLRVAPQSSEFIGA
In short: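 Receptor autophosphorylation was read by ELISA: anti-phosphotyrosine serum and an HRP-linked secondary with ABTS substrate, absorbance at 410 nm (reference 630 nm). The reaction ran 5 min with 3 µM ATP and 5 mM MnCl2 and was quenched by 20 mM EDTA. Compounds were first incubated 30 min with antibody-captured EGFR from A431 cell lysate.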

Row | SMILES | Met Kinase % Inhibition (MET) [%] | Biochem EGFR %Inhibition (EGFR) [%]
1 | CC(C)(C)c1cc(C=C2C(=O)Nc3c(Br)cc(Br)cc32)ccc1O [10721/A09] | 23.0 | 28.0
2 | CNS(=O)(=O)c1ccc2c(c1)C(=Cc1cc3c([nH]1)CCCC3)C(=O)N2 [10721/D05] | 91.9 | 47.0
3 | O=C1Nc2ccc(S(=O)(=O)N3CCOCC3)cc2C1=Cc1ncc[nH]1 [10720/F11] | 1.6 | -61.1
4 | Cc1c(Br)ccc2c1C(=Cc1ccc(Br)cc1)C(=O)N2 [10717/C08] | 27.3 | 24.3
5 | CNS(=O)(=O)c1ccc2c(c1)C(=Cc1nn(C)cc1Cl)C(=O)N2 [10721/D03] | 19.5 | 11.6
6 | Cc1cc(C=C2C(=O)Nc3c(Br)cc(Br)cc32)sc1C [10721/A04] | 85.0 | 59.0
7 | O=C1Nc2c(Br)cc(Br)cc2C1=Cc1ccc(Cl)s1 [10721/A07] | 29.7 | 35.2
8 | COc1ccc(O)c(C=C2C(=O)Nc3ccc(S(=O)(=O)Nc4ccc(C(F)(F)F)cc4)cc32)c1 [10720/E10] | 23.1 | 49.1
9 | COc1cccc(O)c1C=C1C(=O)Nc2ccc(Br)c(C)c21 [10717/C10] | 22.8 | 17.5
10 | COc1cc(O)ccc1C=C1C(=O)Nc2ccc(S(=O)(=O)Nc3ccc(C(F)(F)F)cc3)cc21 [10720/E03] | 54.9 | 54.4
11 | CCOc1cc(C=C2C(=O)Nc3ccc(CCCl)cc32)ccc1O [10720/G09] | 49.5 | -19.7
12 | COc1ccc(C=C2C(=O)Nc3ccc(CCCl)cc32)cc1OC [10720/G04] | 5.0 | -34.1
13 | CNS(=O)(=O)c1ccc2c(c1)C(=Cc1ccccc1O)C(=O)N2 [10720/D05] | 9.8 | -24.1
14 | Cc1c(Br)ccc2c1C(=Cc1ccc(O)c(C(C)(C)C)c1)C(=O)N2 [10721/C09] | -4.7 | 39.8
15 | Cc1[nH]c(C=C2C(=O)Nc3ccc(Br)c(C)c32)c(Br)c1Br [10717/C11] | 71.8 | 67.3
16 | COc1cc(O)ccc1C=C1C(=O)Nc2ccc(S(=O)(=O)N3CCOCC3)cc21 [10720/F03] | 44.1 | 7.1
17 | CNS(=O)(=O)c1ccc2c(c1)C(=Cc1cc([N+](=O)[O-])cc(CCl)c1O)C(=O)N2 [10721/D06] | 9.0 | 44.5
18 | CNS(=O)(=O)c1ccc2c(c1)C(=Cc1ccccc1)C(=O)N2 [10720/D06] | 31.8 | -35.0
19 | O=C1Nc2ccc(S(=O)(=O)N3CCOCC3)cc2C1=Cc1c(F)cc(F)cc1F [10720/F02] | 17.8 | -19.3
20 | Cc1c(Br)ccc2c1C(=Cc1cc([N+](=O)[O-])cc(CCl)c1O)C(=O)N2 [10721/C06] | 56.4 | 80.2

Row | SMILES | Met Kinase % Inhibition (MET) [%] | Biochem EGFR %Inhibition (EGFR) [%]
21 | COc1cc(O)ccc1C=C1C(=O)Nc2ccc(CCCl)cc21 [10720/G03] | 42.1 | 10.0
22 | CNS(=O)(=O)c1ccc2c(c1)C(=Cc1cc(OC)ccc1O)C(=O)N2 [10720/D10] | 51.0 | -10.2
23 | CNS(=O)(=O)c1ccc2c(c1)C(=Cc1c(C)cc(O)cc1O)C(=O)N2 [10720/D08] | 42.1 | -13.3
24 | CC(C)(C)c1cc(C=C2C(=O)Nc3ccc(I)cc32)cc(Br)c1O [10721/B10] | 30.4 | 42.9
25 | CNS(=O)(=O)c1ccc2c(c1)C(=Cc1ccc(SC)s1)C(=O)N2 [10720/D07] | 36.2 | 14.8
26 | O=C1Nc2ccc(S(=O)(=O)Nc3ccc(C(F)(F)F)cc3)cc2C1=Cc1ccccc1 [10720/E06] | 33.1 | 30.1
27 | COc1ccc(C=C2C(=O)Nc3ccc(S(=O)(=O)N4CCOCC4)cc32)cc1OC [10720/F04] | 43.1 | -11.7
28 | Cc1c(Br)ccc2c1C(=Cc1ccc(Cl)s1)C(=O)N2 [10721/C07] | 25.7 | 24.6
29 | CC(C)(C)c1cc(C=C2C(=O)Nc3c(Br)cc(Br)cc32)cc(Br)c1O [10721/A10] | 68.9 | 31.1
30 | CCOc1ccccc1C=C1C(=O)Nc2c(Br)cc(Br)cc21 [10717/A02] | 46.1 | 24.3
31 | CNS(=O)(=O)c1ccc2c(c1)C(=Cc1ccc(OC)c(OC)c1)C(=O)N2 [10720/D04] | 23.6 | -7.7
32 | O=C1Nc2ccc(S(=O)(=O)Nc3ccc(C(F)(F)F)cc3)cc2C1=Cc1ncc[nH]1 [10720/E11] | -10.4 | -65.5
33 | COc1ccc(O)c(C=C2C(=O)Nc3ccc(CCCl)cc32)c1 [10720/G10] | 55.9 | 20.4
34 | Cc1c(Br)ccc2c1C(=Cc1cccn1C)C(=O)N2 [10717/C04] | 25.0 | 14.4
35 | CC(C)(C)c1cc(C=C2C(=O)Nc3ccc(I)cc32)ccc1O [10721/B09] | 28.3 | 38.9
36 | Cn1c(C=C2C(=O)Nc3c(Br)cc(Br)cc32)nc2ccccc21 [10721/A02] | 41.1 | 17.8
37 | Cc1c(Br)ccc2c1C(=Cc1ccc[nH]1)C(=O)N2 [10717/C09] | 47.7 | 8.1
38 | O=C1Nc2ccc(CCCl)cc2C1=Cc1ncc[nH]1 [10720/G11] | 36.2 | -56.7
39 | Cc1cc(O)cc(O)c1C=C1C(=O)Nc2ccc(CCCl)cc21 [10720/G08] | 26.7 | -9.5
40 | CCOc1cc(C=C2C(=O)Nc3ccc(S(=O)(=O)Nc4ccc(C(F)(F)F)cc4)cc32)ccc1O [10720/E09] | 43.4 | 56.4

Row | SMILES | Met Kinase % Inhibition (MET) [%] | Biochem EGFR %Inhibition (EGFR) [%]
41 | CC(C)(C)c1cc(C=C2C(=O)Nc3ccc(I)cc32)cc(C(C)(C)C)c1O [10721/B11] | 6.7 | 34.6
42 | CNS(=O)(=O)c1ccc2c(c1)C(=Cc1nc3ccccc3n1C)C(=O)N2 [10721/D02] | 22.5 | 21.5
43 | Cc1ccc(C=C2C(=O)Nc3ccc(Br)c(C)c32)s1 [10717/C07] | 16.5 | 28.7
44 | CCOc1cc(C=C2C(=O)Nc3ccc(S(=O)(=O)N4CCOCC4)cc32)ccc1O [10720/F09] | 49.2 | 6.4
45 | O=C1Nc2ccc(S(=O)(=O)N3CCOCC3)cc2C1=Cc1ccccc1O [10720/F05] | 39.8 | -14.2
46 | Cc1c(Br)ccc2c1C(=Cc1nc3ccccc3n1C)C(=O)N2 [10721/C02] | 59.2 | 68.3
47 | O=C1Nc2ccc(S(=O)(=O)N3CCOCC3)cc2C1=Cc1ccccc1 [10720/F06] | 21.9 | -24.3
48 | O=C1Nc2ccc(CCCl)cc2C1=Cc1ccccc1O [10720/G05] | 37.0 | 27.0
49 | O=C1Nc2ccc(CCCl)cc2C1=Cc1ccccc1 [10720/G06] | 21.6 | -10.4
50 | CSc1ccc(C=C2C(=O)Nc3ccc(S(=O)(=O)Nc4ccc(C(F)(F)F)cc4)cc32)s1 [10720/E07] | 30.3 | 55.1
51 | CNS(=O)(=O)c1ccc2c(c1)C(=Cc1[nH]c(C)cc1C)C(=O)N2 [10721/D08] | 45.3 | 31.7
52 | Cc1c(Br)ccc2c1C(=Cc1ccc(F)cc1)C(=O)N2 [10717/C05] | 44.6 | 13.1
53 | Cc1c(Br)ccc2c1C(=Cc1cc(Br)c(O)c(C(C)(C)C)c1)C(=O)N2 [10721/C10] | 44.6 | 17.4
54 | O=C1Nc2ccc(CCCl)cc2C1=Cc1c(F)cc(F)cc1F [10720/G02] | 20.1 | -13.1
55 | Cc1c(Br)ccc2c1C(=Cc1cc(C(C)(C)C)c(O)c(C(C)(C)C)c1)C(=O)N2 [10721/C11] | 3.7 | 14.1
56 | Cc1c(Br)ccc2c1C(=Cc1nn(C)cc1Cl)C(=O)N2 [10721/C03] | 6.2 | 64.6
57 | O=C1Nc2c(Br)cc(Br)cc2C1=Cc1cc([N+](=O)[O-])cc(CCl)c1O [10721/A06] | 81.3 | 32.7
58 | Cc1cc(C=C2C(=O)Nc3ccc(Br)c(C)c32)sc1C [10721/C04] | 88.7 | 77.7
59 | CSc1ccc(C=C2C(=O)Nc3ccc(S(=O)(=O)N4CCOCC4)cc32)s1 [10720/F07] | 64.6 | 35.2
60 | Cc1cc(C)c(C=C2C(=O)Nc3ccc(Br)c(C)c32)[nH]1 [10721/C08] | 24.8 | 38.3

From patent publication EP1247803A2, “Indolinone compounds suitable for modulation of protein kinases” (Sugen, Inc., priority 1996, dated 1998)
